Measurements reported in patent publication US20250353864A1, “INDAZOLE CONTAINING MACROCYCLES AND THEIR USE” (BLOSSOMHILL THERAPEUTICS, INC., priority 2022, published 2025).
pIC50: −log10 of the molar value.

Key:
Format in all cases: biochemical
ALK = ALK (Homo sapiens (Human), UniProt Q9UM73); assay: HotSpot radiometric kinase assay, inhibition of ALK kinase activity; conditions: 10 μM ATP
Method: Briefly, specific kinase/substrate pairs along with required cofactors were prepared in reaction buffer; 20 mM Hepes pH 7.5, 10 mM […], 1 mM EGTA, 0.02% Brij35, 0.02 mg/ml BSA, 0.1 mM Na3VO4, 2 mM DTT, 1% DMSO. Compounds were delivered into the reaction, followed […] later by addition of a mixture of ATP (Sigma, St. Louis MO) and ^33P ATP (Perkin Elmer, Waltham MA) to a final concentration of 10 μM. Reactions were carried out at room temperature for 120 min, followed by spotting of the reactions onto P81 ion exchange filter paper (Whatman Inc., Piscataway, NJ). Unbound phosphate was removed by extensive washing of filters in 0.75% phosphoric acid. […] IC50 values and curve fits were obtained using Prism (GraphPad Software).

CLK1 = CLK1 (Homo sapiens (Human), UniProt P49759); assay: Inhibition of CLK1 kinase activity evaluated at Nanosyn (ADP-Glo); conditions: ADP-Glo luminescence
Chain of CLK1 (P49759 whole entry): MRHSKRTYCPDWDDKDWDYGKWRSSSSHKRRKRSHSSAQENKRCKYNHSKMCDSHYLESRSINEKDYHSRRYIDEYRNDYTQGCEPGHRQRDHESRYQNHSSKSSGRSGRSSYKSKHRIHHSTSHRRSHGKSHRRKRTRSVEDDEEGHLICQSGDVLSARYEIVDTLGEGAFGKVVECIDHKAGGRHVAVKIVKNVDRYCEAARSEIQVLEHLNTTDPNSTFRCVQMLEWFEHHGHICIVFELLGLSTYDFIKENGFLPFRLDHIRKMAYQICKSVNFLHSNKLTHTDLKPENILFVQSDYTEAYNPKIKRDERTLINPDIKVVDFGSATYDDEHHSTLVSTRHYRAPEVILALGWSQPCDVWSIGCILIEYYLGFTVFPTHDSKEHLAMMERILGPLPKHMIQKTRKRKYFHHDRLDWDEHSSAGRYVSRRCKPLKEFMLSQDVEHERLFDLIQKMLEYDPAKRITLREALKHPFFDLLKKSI
Procedure, shortened: (§1)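 Percent inhibition derived from luminescent ADP detection (ADP-Glo), normalised to DMSO-only and enzyme-free wells. Reactions ran in HEPES pH 7.5 buffer with Mg2+, Triton X-100 and BSA, 1% DMSO, ATP-initiated, for an assay-specific time.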

[1] = biological target: EGFR L858R/T790M/C797S mutant (Homo sapiens (Human), UniProt P00533, C797S/L858R/T790M); assay: HotSpot radiometric kinase assay, EGFR L858R/T790M/C797S mutant; conditions: 10 μM ATP
Procedure, shortened: (§2)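 IC50 values come from curve fits of ^33P incorporation captured on P81 filters after acid washing. Kinase reactions ran 120 min at room temperature with 10 μM ATP, added about 20 min after compound. Buffer was Hepes pH 7.5 containing Mg, DTT and 1% DMSO.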

CLK4 = CLK4 (Homo sapiens (Human), UniProt Q9HAZ1); assay: Inhibition of CLK4 kinase activity evaluated at Nanosyn (ADP-Glo); conditions: ADP-Glo luminescence
Chain of CLK4 (Q9HAZ1 whole entry): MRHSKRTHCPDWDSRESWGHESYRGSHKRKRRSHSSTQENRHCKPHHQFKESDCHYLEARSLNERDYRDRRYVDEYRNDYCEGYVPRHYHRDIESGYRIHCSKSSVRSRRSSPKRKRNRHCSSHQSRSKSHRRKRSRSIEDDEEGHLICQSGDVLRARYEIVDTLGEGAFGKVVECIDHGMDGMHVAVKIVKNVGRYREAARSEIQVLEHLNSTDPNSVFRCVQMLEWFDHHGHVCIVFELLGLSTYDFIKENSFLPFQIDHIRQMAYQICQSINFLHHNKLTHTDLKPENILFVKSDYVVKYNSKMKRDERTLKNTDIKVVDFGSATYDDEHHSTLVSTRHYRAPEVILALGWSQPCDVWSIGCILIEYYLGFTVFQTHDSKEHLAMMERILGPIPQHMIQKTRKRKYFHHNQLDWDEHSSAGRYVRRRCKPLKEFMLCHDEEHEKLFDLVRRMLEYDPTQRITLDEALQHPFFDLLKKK
Procedure, shortened: as §1

EGFR L858R mutant = EGFR L858R mutant (Homo sapiens (Human), UniProt P00533, L858R); assay: HotSpot radiometric kinase assay, EGFR L858R mutant; conditions: 10 μM ATP
Chain of EGFR L858R mutant (P00533 25-1210 L858R): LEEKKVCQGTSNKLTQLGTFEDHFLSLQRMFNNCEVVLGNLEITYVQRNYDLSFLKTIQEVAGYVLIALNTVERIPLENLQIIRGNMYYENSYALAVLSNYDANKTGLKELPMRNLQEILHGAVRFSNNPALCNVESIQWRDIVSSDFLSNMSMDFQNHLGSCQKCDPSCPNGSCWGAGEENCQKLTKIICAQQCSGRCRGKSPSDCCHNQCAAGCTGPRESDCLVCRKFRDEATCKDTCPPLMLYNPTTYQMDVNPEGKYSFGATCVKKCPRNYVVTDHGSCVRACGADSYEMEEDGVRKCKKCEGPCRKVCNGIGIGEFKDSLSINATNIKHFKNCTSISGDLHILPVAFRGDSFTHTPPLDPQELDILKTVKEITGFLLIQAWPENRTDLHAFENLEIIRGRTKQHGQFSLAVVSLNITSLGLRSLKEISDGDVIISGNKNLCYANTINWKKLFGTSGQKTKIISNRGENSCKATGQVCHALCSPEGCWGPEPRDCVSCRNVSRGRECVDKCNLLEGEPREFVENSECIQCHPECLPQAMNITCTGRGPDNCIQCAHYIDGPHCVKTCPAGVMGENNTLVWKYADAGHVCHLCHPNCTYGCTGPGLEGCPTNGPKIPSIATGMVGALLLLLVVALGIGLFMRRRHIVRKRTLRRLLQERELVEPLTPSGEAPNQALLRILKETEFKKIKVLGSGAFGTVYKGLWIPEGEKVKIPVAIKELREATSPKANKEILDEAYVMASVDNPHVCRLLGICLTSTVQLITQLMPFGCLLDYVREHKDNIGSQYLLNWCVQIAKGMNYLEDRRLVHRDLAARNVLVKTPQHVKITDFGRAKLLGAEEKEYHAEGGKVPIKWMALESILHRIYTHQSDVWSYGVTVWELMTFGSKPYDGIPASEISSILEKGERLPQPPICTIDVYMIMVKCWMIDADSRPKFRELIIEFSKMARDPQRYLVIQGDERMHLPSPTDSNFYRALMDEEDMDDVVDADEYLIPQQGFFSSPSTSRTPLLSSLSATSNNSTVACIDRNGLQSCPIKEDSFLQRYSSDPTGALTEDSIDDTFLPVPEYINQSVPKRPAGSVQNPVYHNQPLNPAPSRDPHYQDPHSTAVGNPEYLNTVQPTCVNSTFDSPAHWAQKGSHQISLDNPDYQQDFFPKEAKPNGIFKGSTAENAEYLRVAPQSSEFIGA
Procedure, shortened: as §2

EGFR L858R/T790M mutant = EGFR L858R/T790M mutant (Homo sapiens (Human), UniProt P00533, L858R/T790M); assay: HotSpot radiometric kinase assay, EGFR L858R/T790M mutant; conditions: 10 μM ATP
Procedure, shortened: as §2

[2] = biological target: EGFR Δ746-750/C797S mutant (Homo sapiens (Human), UniProt P00533, C797S/DEL746-750); assay: HotSpot radiometric kinase assay, EGFR Δ746-750/C797S mutant; conditions: 10 μM ATP
Chain of EGFR Δ746-750/C797S mutant (P00533 other isoform, or with tags, fused parts or gaps C797S/del 1-668/del 746-750 limits assumed): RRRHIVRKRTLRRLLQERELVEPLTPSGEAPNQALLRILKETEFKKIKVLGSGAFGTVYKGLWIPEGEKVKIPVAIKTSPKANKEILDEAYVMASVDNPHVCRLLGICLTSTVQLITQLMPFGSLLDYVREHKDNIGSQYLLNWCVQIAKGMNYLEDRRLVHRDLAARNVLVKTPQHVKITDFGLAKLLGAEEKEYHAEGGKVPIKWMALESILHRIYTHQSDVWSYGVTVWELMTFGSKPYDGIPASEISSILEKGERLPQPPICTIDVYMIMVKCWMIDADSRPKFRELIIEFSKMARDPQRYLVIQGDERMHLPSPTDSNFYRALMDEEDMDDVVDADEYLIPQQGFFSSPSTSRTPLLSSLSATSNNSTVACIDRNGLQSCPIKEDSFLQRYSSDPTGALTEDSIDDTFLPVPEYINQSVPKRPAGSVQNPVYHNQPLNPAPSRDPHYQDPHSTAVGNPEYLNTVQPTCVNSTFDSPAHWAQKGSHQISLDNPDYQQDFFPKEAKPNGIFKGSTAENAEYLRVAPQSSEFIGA
Procedure, shortened: as §2

CLK2 = CLK2 (Homo sapiens (Human), UniProt P49760); assay: Inhibition of CLK2 kinase activity evaluated at Nanosyn (ADP-Glo); conditions: ADP-Glo luminescence
Chain of CLK2 (P49760 whole entry): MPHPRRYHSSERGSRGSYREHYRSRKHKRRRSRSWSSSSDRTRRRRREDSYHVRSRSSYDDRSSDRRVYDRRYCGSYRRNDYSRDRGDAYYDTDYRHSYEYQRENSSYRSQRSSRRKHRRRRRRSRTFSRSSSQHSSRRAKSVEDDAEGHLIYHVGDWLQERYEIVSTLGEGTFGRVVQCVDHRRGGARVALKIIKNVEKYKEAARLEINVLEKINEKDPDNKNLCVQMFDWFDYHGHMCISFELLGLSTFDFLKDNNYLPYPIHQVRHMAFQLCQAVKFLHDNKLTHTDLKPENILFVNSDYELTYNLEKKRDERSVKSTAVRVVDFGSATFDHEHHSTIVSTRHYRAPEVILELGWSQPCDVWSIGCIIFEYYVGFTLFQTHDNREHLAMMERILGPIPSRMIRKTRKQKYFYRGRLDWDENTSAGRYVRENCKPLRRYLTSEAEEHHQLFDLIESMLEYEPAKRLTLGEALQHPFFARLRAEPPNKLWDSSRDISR
Procedure, shortened: as §1

CLK3 = CLK3 (Homo sapiens (Human), UniProt P49761); assay: Inhibition of CLK3 kinase activity evaluated at Nanosyn (ADP-Glo); conditions: ADP-Glo luminescence
Chain of CLK3 (P49761 whole entry): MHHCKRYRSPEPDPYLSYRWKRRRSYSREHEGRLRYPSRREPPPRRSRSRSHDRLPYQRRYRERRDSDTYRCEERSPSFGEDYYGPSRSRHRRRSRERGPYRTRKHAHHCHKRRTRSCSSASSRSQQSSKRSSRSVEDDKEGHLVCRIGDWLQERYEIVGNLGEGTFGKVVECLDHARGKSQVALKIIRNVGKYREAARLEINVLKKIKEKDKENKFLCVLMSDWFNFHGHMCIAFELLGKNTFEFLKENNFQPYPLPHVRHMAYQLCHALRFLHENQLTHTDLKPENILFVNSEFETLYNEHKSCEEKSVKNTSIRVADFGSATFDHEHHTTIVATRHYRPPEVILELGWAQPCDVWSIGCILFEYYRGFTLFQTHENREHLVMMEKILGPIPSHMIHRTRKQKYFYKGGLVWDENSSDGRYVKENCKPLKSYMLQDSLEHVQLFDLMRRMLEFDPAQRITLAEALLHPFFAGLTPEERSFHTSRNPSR
Procedure, shortened: as §1

EGFR Δ746-750 mutant = EGFR Δ746-750 mutant (Homo sapiens (Human), UniProt P00533, DEL746-750); assay: HotSpot radiometric kinase assay, EGFR Δ746-750 mutant; conditions: 10 μM ATP
Procedure, shortened: as §2

EGFR WT = EGFR WT (Homo sapiens (Human), UniProt P00533); assay: HotSpot radiometric kinase assay (Reaction Biology), EGFR WT; conditions: 10 μM ATP
Chain of EGFR WT (P00533 25-1210): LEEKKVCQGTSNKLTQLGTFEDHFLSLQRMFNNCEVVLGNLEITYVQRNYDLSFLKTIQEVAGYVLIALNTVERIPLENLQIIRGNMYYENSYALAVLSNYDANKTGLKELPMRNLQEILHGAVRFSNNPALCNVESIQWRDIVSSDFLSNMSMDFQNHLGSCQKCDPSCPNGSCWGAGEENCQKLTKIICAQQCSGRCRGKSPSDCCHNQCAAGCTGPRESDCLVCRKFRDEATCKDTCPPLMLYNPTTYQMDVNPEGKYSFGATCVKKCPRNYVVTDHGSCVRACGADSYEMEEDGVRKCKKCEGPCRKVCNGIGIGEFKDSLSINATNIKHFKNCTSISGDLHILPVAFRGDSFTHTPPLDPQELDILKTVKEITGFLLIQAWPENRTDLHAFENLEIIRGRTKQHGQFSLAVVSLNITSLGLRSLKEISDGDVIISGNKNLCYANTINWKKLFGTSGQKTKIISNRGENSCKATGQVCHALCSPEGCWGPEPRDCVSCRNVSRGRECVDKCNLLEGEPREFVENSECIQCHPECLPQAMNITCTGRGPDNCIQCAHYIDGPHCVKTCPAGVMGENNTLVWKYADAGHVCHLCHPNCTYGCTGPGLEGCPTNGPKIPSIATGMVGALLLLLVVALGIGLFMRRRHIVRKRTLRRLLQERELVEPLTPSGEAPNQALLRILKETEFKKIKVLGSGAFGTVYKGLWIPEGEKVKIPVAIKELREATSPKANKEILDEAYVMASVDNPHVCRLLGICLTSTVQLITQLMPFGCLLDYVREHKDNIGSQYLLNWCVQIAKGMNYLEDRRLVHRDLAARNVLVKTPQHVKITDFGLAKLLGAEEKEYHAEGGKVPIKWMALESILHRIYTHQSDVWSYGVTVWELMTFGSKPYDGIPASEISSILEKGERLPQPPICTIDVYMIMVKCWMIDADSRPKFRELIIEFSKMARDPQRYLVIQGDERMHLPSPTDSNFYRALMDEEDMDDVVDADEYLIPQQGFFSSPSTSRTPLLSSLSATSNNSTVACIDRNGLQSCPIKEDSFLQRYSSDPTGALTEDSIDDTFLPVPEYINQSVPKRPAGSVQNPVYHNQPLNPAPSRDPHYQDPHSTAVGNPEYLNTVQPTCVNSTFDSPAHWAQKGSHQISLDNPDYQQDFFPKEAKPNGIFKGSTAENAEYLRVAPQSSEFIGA
Procedure, shortened: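 10 μM ATP (33P-labelled, final); 120 min RT; P81 filter capture, 0.75% phosphoric acid washes. Cpd preincubated ~20 min with enzyme/substrate, 20 mM Hepes pH 7.5, 10 mM MgCl2, 1% DMSO. IC50 by curve fit.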

EGFR (D770_N771insNPG) = EGFR (D770_N771insNPG) (Homo sapiens (Human), UniProt P00533, INS770NPG); assay: HotSpot radiometric kinase assay, EGFR (D770_N771insNPG); conditions: 10 μM ATP, read-out: EGFR (Δ770_N771insNPG) IC50
Procedure, shortened: as §2

pIC50 (ALK) | pIC50 (CLK1) | pIC50 [1] | pIC50 (CLK4) | pIC50 (EGFR L858R mutant) | pIC50 (EGFR L858R/T790M mutant) | pIC50 [2] | pIC50 (CLK2) | pIC50 (CLK3) | pIC50 (EGFR Δ746-750 mutant) | pIC50 (EGFR WT) | pIC50 (EGFR (D770_N771insNPG)) | Compound
7.54 | – | – | – | – | – | – | – | – | – | – | – | CCNC(=O)Cn1nc(C)c2c1COCCOc1c(cnn1C)-c1ccc3[nH]nc(c3c1)/C=C/2 [Example 301, 2-[(17E)-8,16-dimethyl-2,10,11,13-tetrahydro-3,5-etheno[1,4]dioxacyclopentadecino[10,11-c:15,14-c′:6,7-c′]tripyrazol-14(8H)-yl]-N-ethylacetamide]
7.56 | – | – | – | – | – | – | – | – | – | – | – | Cc1nn(C)c2c1/C=C/c1n[nH]c3ccc(cc13)-c1cnn(C)c1OCCOC2 [Example 303, (17E)-8,14,16-trimethyl-2,8,10,11,13,14-hexahydro-3,5-etheno[1,4]dioxacyclopentadecino[10,11-c:15,14-c′:6,7-c″]tripyrazole]
– | 9.03 | 9.17 | 8.75 | 8.07 | 8.74 | 8.59 | 9.49 | 6.62 | 8.28 | 7.69 | 6.99 | C[C@@H](C#N)Oc1nn(CCO)c2c1/C=C/c1n[nH]c3cc(F)c(cc13)-c1cnn(C)c1O[C@@H](C)CN(C)C2 [Ex. 269, (2S)-2-{[(10S,17E)-19-fluoro-14-(2-hydroxyethyl)-8,10,12-trimethyl-2,10,11,12,13,14-hexahydro-8H-3,5-ethenotripyrazolo[3,4-f:3′,4′-j:4″,3″-n][1,4]oxazacyclopentadecin-16-yl]oxy}propanenitrile]
– | 9.68 | 9.77 | 9.12 | 8.91 | 9.54 | 8.71 | 10.22 | 7.67 | 8.97 | 8.21 | 8.04 | Cc1nn(CCO)c2c1/C=C/c1n[nH]c3ccc(cc13)-c1cnn(C)c1O[C@@H](C)CN(C)C2 [Example 61, 2-[(10S,17E)-8,10,12,16-tetramethyl-2,8,10,11,12,13-hexahydro-14H-3,5-ethenotripyrazolo[3,4-f:3′,4′-j:4″,3″- n][1,4]oxazacyclopentadecin-14-yl]ethan-1-ol]
– | 8.28 | 9.38 | 8.27 | 7.28 | 9.24 | 8.41 | 8.15 | 6.63 | 7.77 | 6.81 | 6.86 | CC(C)Oc1nn(CCO)c2c1/C=C/c1n[nH]c3ccc(cc13)-c1cnn(C)c1O[C@H](C)CN(C1CC1)C2 [Example 212, 2-{(10R,17E)-12-cyclopropyl-8,10-dimethyl-16-[(propan-2-yl)oxy]-2,8,10,11,12,13-hexahydro-14H-3,5-ethenotripyrazolo[3,4-f:3′,4′-j:4″,3″- n][1,4]oxazacyclopentadecin-14-yl}ethan-1-ol]
– | 8.81 | 7.88 | 8.84 | 7.26 | 8.16 | 7.45 | 7.93 | 6.00 | 7.60 | 6.82 | 7.08 | Cc1nn(C)c2c1/C=C/c1n[nH]c3ccc(cc13)-c1cnn(C)c1O[C@H]1CCCN(C2)C1 [Example 176, (10S,19E)-8,16,18-trimethyl-2,8,10,11,12,13,15,16-octahydro-3,5-etheno-10,14-methanotripyrazolo[3,4-h:3′,4′-l:4″,3″- p][1,6]oxazacycloheptadecine]
– | 9.06 | 9.22 | 8.84 | 7.29 | 8.92 | 8.19 | 9.00 | 6.43 | 8.05 | 6.92 | 6.65 | CC(C)Oc1nn(CCO)c2c1/C=C/c1n[nH]c3ccc(cc13)-c1cnn(C)c1OCC(CF)N(C)C2 (stereo not drawn) [Example 226, 2-{(17E)-11-(fluoromethyl)-8,12-dimethyl-16-[(propan-2-yl)oxy]-2,8,10,11.12,13-hexahydro-14H-3,5-ethenotripyrazolo[3,4-f:3′,4′-j:4″,3″-n][1,4]oxazacyclopentadecin-14-yl}ethan-1-ol]
– | 8.97 | 7.71 | 8.81 | 8.06 | 8.36 | 8.28 | 8.62 | 7.21 | 8.16 | 7.65 | 6.64 | CCOc1nn(C)c2c1/C=C/c1n[nH]c3cc(F)c(cc13)-c1cnn(C)c1OC1CCCN(C2)C1 (stereo in doubt) [Example 178]
– | 9.09 | 8.99 | 8.69 | 8.12 | 9.15 | 8.62 | 8.67 | 6.27 | 7.73 | 7.36 | 6.90 | CCN1Cc2nn(C)c(C)c2/C=C/c2n[nH]c3ccc(cc23)-c2cnn(C)c2O[C@@H](C)C1 [Example 59, (10S,17E)-12-ethyl-8,10,15,16-tetramethyl-2,10,11,12,13,15-hexahydro-8H-3,5-ethenotripyrazolo[3,4-f:3′,4′-j:4″,3″-n][1,4]oxazacyclopentadecine]
– | 9.19 | 9.30 | 8.88 | 8.40 | 9.12 | 8.75 | 9.15 | 7.49 | 8.89 | 8.16 | 7.74 | CCN1Cc2c(c(OC(C)C)nn2CC(C)=O)/C=C/c2n[nH]c3ccc(cc23)-c2cnn(C)c2O[C@@H](C)C1 [Example 263, 1-{(10S,17E)-12-ethyl-8,10-dimethyl-16-[(propan-2-yl)oxy]-2,8,10,11.12,13-hexahydro-14H-3,5-ethenotripyrazolo[3,4-f:3′,4′-j:4″,3″-n][1,4]oxazacyclopentadecin-14-yl}propan-2-one]
– | 8.78 | 8.84 | 8.43 | 8.77 | 9.28 | 9.13 | 8.76 | 6.32 | 9.12 | 8.48 | 7.36 | CCOc1nn(C)c2c1/C=C/c1n[nH]c3cc(F)c(cc13)-c1cnn(C)c1O[C@@H](C)CN(CC)C2 [Example 206, (10S,17E)-16-ethoxy-12-ethyl-19-fluoro-8,10,14-trimethyl-2,10,11,12,13,14-hexahydro-8H-3,5-ethenotripyrazolo[3,4-f:3′,4′-j:4″,3″-n][1,4]oxazacyclopentadecine]
– | 9.15 | 8.79 | 9.05 | 7.38 | 8.88 | 7.60 | 9.37 | 6.39 | 7.97 | 6.82 | 6.59 | Cc1c2c(nn1C)/C=C/c1n[nH]c3ccc(cc13)-c1cnn(C)c1O[C@@H](C)CN(C(C)C)C2 [Example 233, (10S,17E)-8,10,14,15-tetramethyl-12-(propan-2-yl)-2,10,11,12,13,15-hexahydro-8H-3,5-ethenotripyrazolo[4,3-f:3′,4′-j:4″,3″- n][1,4]oxazacyclopentadecine]
– | 9.37 | 9.21 | 9.09 | 9.47 | 9.35 | 9.07 | 9.85 | 7.06 | 9.21 | 8.76 | 8.20 | CCOc1nn([C@@H](C)CO)c2c1/C=C/c1n[nH]c3ccc(cc13)-c1cnn(C)c1O[C@@H](C)CN(C)C2 [Example 155]
